“And” between values parts separate entries of the source, which are not always exact repeats. Equal values may be shown once. Numbers after ± are expanded uncertainties.
Experiments:
[1] = Crystal; DTA
[2] = Molar enthalpy of transition or fusion; conditions: Crystal; DSC

Normal melting temperature [1]: 287 ± 3 °C
Molar enthalpy of transition or fusion [2]: 7.6 kcal/mol and 9.5 kcal/mol
SMILES: O=C([O-])Cc1ccccc1Nc1c(Cl)cccc1Cl.[Na+] [sodium diclofenac]

Reference: the NIST ThermoML archive (doi:10.1016/j.fluid.2007.07.020)
